How the values were obtained:
[1] = rat, in vivo; cited from earlier work
From the text: According to a study by Novo Nordisk,^[ [39] ^] […] While the fatty acid chai ...

in vivo = conditions: male, SD, rat, 0.05 mg/kg; for level at 72 h: Plasma Conc. at 72 h; for level at 96 h: Plasma Conc. at 96 h
Protocol: B) half‐life (T1/2). C) the maximum plasma concentration (Cmax). […] F) time to Maximum Concentration (Tmax). […] Data were analyzed with the two‐sided Student's unpaired t test. ^* p < 0.05, ^** p < 0.01, ^*** p < 0.001.
Plasma samples were analyzed using LC‐MS/MS (Waters XEVO TQ‐XS), and pharmacokinetic parameters such as T1/2, Cmax, Tmax, AUC0‐t, and MRT0‐t were calculated using WinNonlin. The sample preparation and detailed information of LC‐MS/MS are shown in Table S5 (Supporting Information).

level at 2 h (in vivo; Plasma Conc. at 2 h, animal 1): 241 ng/mL
level at 2 h (in vivo; Plasma Conc. at 2 h, animal 2): 262 ng/mL
level at 2 h (in vivo; Plasma Conc. at 2 h, animal 3): 272 ng/mL
level at 4 h (in vivo; Plasma Conc. at 4 h, animal 1): 308 ng/mL
level at 4 h (in vivo; Plasma Conc. at 4 h, animal 2): 275 ng/mL
level at 4 h (in vivo; Plasma Conc. at 4 h, animal 3): 339 ng/mL
level at 8 h (in vivo; Plasma Conc. at 8 h, animal 1): 321 ng/mL
level at 8 h (in vivo; Plasma Conc. at 8 h, animal 2): 327 ng/mL
level at 8 h (in vivo; Plasma Conc. at 8 h, animal 3): 341 ng/mL
level at 12 h (in vivo; Plasma Conc. at 12 h, animal 1): 283 ng/mL
level at 12 h (in vivo; Plasma Conc. at 12 h, animal 2): 278 ng/mL
level at 24 h (in vivo; Plasma Conc. at 24 h, animal 1): 133 ng/mL
level at 24 h (in vivo; Plasma Conc. at 24 h, animal 2): 135 ng/mL
level at 48 h (in vivo; Plasma Conc. at 48 h, animal 1): 12.9 ng/mL
level at 48 h (in vivo; Plasma Conc. at 48 h, animal 2): 13.4 ng/mL
level at 72 h (in vivo; animal 1): 1.5 ng/mL
level at 72 h (in vivo; animal 2): 1.8 ng/mL
level at 96 h (in vivo; animal 1): 1 ng/mL
level at 96 h (in vivo; animal 2): 0.3 ng/mL
level at 2 h (in vivo; Plasma concentration at 2 h (mean)): 258 ng/mL
level at 4 h (in vivo; Plasma concentration at 4 h (mean)): 307 ng/mL
level at 8 h (in vivo; Plasma concentration at 8 h (mean)): 330 ng/mL
level at 12 h (in vivo; Plasma concentration at 12 h (mean)): 280 ng/mL
level at 24 h (in vivo; Plasma concentration at 24 h (mean)): 132 ng/mL
level at 48 h (in vivo; Plasma concentration at 48 h (mean)): 13.9 ng/mL
SMILES: CC[C@H](C)[C@H](NC(=O)[C@H](Cc1ccccc1)NC(=O)[C@H](CCC(=O)O)NC(=O)[C@H](CCCCNC(=O)COCCOCCNC(=O)COCCOCCNC(=O)CC[C@H](NC(=O)CCCCCCCCCCCCCCCCC(=O)O)C(=O)O)NC(=O)[C@H](C)NC(=O)[C@H](C)NC(=O)[C@H](CCC(N)=O)NC(=O)CNC(=O)[C@H](CCC(=O)O)NC(=O)[C@H](CC(C)C)NC(=O)[C@H](Cc1ccc(O)cc1)NC(=O)[C@H](CO)NC(=O)[C@H](CO)NC(=O)[C@@H](NC(=O)[C@H](CC(=O)O)NC(=O)[C@H](CO)NC(=O)[C@@H](NC(=O)[C@H](Cc1ccccc1)NC(=O)[C@@H](NC(=O)CNC(=O)[C@H](CCC(=O)O)NC(=O)C(C)(C)NC(=O)[C@@H](N)Cc1cnc[nH]1)[C@@H](C)O)[C@@H](C)O)C(C)C)C(=O)N[C@@H](C)C(=O)N[C@@H](Cc1c[nH]c2ccccc12)C(=O)N[C@@H](CC(C)C)C(=O)N[C@H](C(=O)N[C@@H](CCCNC(=N)N)C(=O)NCC(=O)N[C@@H](CCCNC(=N)N)C(=O)NCC(=O)O)C(C)C [Semaglutide]
half‐life in rats (literature) [1]: 7 to 8 h
